The results in this text go back to patent US10669272B2, “Substituted naphthyridinone compounds useful as T cell activators” (BRISTOL-MYERS SQUIBB COMPANY, priority 2018, dated 2020).

One test deals with naïve human CD8 T cells. Briefly: Human CD8 T cells IFN-γ assay.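 Also: Naïve human CD8 T cells stimulated with plate-bound anti-CD3 and soluble anti-CD28, IFN-γ in supernatant quantified by AlphaLISA and converted to pg/mL.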 Type of test: cell-based. The following applies: read-out: HuCD8 INFG Normalized EC50.
The target of a further test is T1, human DGKα (Homo sapiens, UniProt P23743).
T1 construct: TVMV protease cleavage site (C); Hexa-His (C); made in house; host or cells: Sf9 insect cells (baculovirus, Bac-to-Bac)
T1 sequence (P23743 with tags, fused parts or gaps): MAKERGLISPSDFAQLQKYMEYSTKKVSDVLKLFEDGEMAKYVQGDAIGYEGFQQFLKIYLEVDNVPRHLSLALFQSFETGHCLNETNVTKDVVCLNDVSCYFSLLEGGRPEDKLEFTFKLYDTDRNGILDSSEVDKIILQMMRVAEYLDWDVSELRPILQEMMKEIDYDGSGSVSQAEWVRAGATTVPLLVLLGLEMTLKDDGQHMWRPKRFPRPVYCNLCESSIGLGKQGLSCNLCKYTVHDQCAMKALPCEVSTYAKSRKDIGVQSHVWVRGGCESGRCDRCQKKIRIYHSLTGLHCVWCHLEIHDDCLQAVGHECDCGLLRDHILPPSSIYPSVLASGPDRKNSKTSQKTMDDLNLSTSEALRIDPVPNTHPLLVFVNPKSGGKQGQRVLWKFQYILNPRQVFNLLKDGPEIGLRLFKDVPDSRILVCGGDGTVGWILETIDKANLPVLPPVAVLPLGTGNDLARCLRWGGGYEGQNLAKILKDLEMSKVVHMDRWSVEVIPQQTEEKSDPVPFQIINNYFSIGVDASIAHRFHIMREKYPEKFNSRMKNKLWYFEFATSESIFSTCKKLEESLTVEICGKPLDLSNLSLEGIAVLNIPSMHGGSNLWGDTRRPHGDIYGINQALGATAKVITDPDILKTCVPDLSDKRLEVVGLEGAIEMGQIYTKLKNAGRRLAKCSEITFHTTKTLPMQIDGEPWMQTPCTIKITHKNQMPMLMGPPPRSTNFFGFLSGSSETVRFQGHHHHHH
Briefly: DGKα LIPGLO assay (extruded liposome substrate), in vitro DGK inhibition. Type of test: biochemical. Particulars: read-out: DGKa LIPGLO IC50.

In a further test the target is T2, human DGKζ (Homo sapiens, UniProt Q13574).
T2 construct: TVMV protease cleavage site (C); Hexa-His (C); made in house; host or cells: Sf9 insect cells (baculovirus, Bac-to-Bac)
T2 sequence (Q13574 with tags, fused parts or gaps isoform Q13574-4): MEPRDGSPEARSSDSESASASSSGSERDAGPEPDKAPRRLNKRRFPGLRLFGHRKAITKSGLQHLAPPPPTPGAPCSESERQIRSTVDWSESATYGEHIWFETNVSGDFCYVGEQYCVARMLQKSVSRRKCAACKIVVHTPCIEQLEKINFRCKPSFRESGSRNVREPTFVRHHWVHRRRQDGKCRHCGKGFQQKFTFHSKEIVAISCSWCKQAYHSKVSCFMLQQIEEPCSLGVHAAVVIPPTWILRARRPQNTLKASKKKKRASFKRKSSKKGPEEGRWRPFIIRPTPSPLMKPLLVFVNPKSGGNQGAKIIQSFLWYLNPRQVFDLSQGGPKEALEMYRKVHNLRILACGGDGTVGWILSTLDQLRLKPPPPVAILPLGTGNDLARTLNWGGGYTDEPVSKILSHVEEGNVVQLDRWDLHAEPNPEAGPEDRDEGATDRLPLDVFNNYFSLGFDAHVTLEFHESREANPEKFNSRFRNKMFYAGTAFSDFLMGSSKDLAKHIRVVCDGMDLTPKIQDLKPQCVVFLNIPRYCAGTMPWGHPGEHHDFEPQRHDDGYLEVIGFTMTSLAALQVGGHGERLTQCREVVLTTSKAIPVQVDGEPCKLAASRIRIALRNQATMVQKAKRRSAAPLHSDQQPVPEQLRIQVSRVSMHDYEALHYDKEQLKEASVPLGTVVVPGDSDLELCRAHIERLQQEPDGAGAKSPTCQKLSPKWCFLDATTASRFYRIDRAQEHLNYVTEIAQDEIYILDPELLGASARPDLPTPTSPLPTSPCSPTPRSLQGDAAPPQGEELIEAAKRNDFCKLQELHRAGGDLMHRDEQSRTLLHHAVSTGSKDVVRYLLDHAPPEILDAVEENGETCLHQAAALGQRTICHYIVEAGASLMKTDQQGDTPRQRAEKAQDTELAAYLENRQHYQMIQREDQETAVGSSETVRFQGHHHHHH
Briefly: DGKζ LIPGLO assay (extruded liposome substrate), in vitro DGK inhibition. The following applies: read-out: DGKz LIPGLO IC50. The format is biochemical.

In another test the test system is Human venous whole blood. Briefly: Human whole blood IFN-γ assay.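 Also: blood from healthy donors exposed to compound for 1 h before stimulation with anti-CD3 and anti-CD28 at 1 µg/mL each, IFN-γ quantified in supernatant by AlphaLISA.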 The format is cell-based. Particulars: human whole blood, read-out: INFg Whole Blood Normalized Agonist EC50.
The mark [1] stands for this setting: Homo sapiens, T-cell, 20 h, normalized to 3 μM reference compound with anti-CD3 plus anti-CD28 as 100% activation.
Setting [2] is: Homo sapiens, 24 h, normalized to 3 μM reference compound with anti-CD3 plus anti-CD28 as 100% activation.
The mark [3] stands for this setting: anti-CD3 plus anti-CD28, 24 hours, 3 μM reference compound = 100% activation.
Setting [4] is: naïve human CD8 T cells, anti-CD3 plus anti-CD28, 3 μM reference compound = 100% activation.
The mark [5] stands for this setting: normalized to 3 μM reference compound with anti-CD3 plus anti-CD28 as 100% activation.

Read-outs that look alike come from different tables or passages of the source.

Description for Human venous whole blood: Human Whole Blood IFN-γ Assay
Human venous whole blood (22.5 μL per well), obtained from healthy donors, was pre-treated with compounds for one hour at 37° C. in a humidified 95% air/5% CO2 incubator. The blood was stimulated with 2.5 μL anti-human CD3 and anti-CD28 mAb at a final concentration of 1 μg/mL each for 24 hours at 37° C. IFN-γ in the supernatants was measured using AlphLISA kit (Cat # AL217).

As for `C[C@@H]1CN(c2c(F)c(=O)n(C)c3ccc(C#N)nc23)CCN1C(c1ccc(Cl)cc1)c1ccc(Cl)cc1` [Example 34, (R)-8-(4-(bis(4-chlorophenyl)methyl)-3-methylpiperazin-1-yl)-7-fluoro-5-methyl-6-oxo-5,6-dihydro-1,5-naphthyridine-2-carbonitrile], the results for the EC50 in the test with naïve human CD8 T cells (setting [1]) and in the test on Human venous whole blood (setting [2]) were 180 nM and 1300 nM, respectively. In addition, the values for the IC50 on human DGKα (liposome (LIPGLO) assay) and on human DGKζ (liposome (LIPGLO) assay) were 690 nM and 510 nM, respectively.

`Cc1ccc(C(c2cccc(C)n2)N2C[C@H](C)N(c3cc(=O)n(C)c4ccc(C#N)nc34)C[C@H]2C)cc1` (stereo partly drawn) [Example 450, 8-((2S,5R)-2,5-dimethyl-4-((6-methylpyridin-2-yl)(p-tolyl)methyl)piperazin-1-yl)-5-methyl-6-oxo-5,6-dihydro-1,5-naphthyridine-2-carbonitrile]: the half-maximal effective concentration (EC50) in the test on naïve human CD8 T cells (setting [1]) stood at 70 nM; with Human venous whole blood (setting [2]) it was 280 nM. Moreover, the values for the half-inhibitory concentration (IC50) at human DGKα (liposome (LIPGLO) assay) and at human DGKζ (liposome (LIPGLO) assay) were 2600 nM and 290 nM, respectively.

Take `C[C@@H]1CN(c2c(C#N)c(=O)n(C)c3ccc(C#N)nc23)CCN1C(c1ccc(F)cc1)c1ccc(F)cn1` (stereo partly drawn) [Example 903]: the EC50 in the test with naïve human CD8 T cells (Homo sapiens, T-cell, 20 h, naïve human CD8 T cells, anti-CD3 plus anti-CD28, 3 μM reference compound = 100% activation) turned out to be 140 nM; in the test with Human venous whole blood (setting [3]) it was 730 nM. The 50% inhibitory concentration (IC50) on human DGKα (DGKα liposome (LIPGLO) assay) came to 630 nM; on human DGKζ (DGKζ liposome (LIPGLO) assay), 3500 nM.

As for `C[C@@H]1CN(c2c(C#N)c(=O)n(C)c3ccc(C#N)nc23)CCN1C(c1ccc(F)cc1)c1ccc(Cl)cn1` (stereo partly drawn) [Example 932], the 50% effective concentration (EC50) turned out to be 52 nM with naïve human CD8 T cells (setting [4]) and 310 nM in the test with Human venous whole blood (Homo sapiens, 24 h, anti-CD3 plus anti-CD28, 24 hours, 3 μM reference compound = 100% activation). For the same compound, the figures for the half-maximal inhibitory concentration (IC50) at human DGKα (DGKα liposome (LIPGLO) assay) and at human DGKζ (DGKζ liposome (LIPGLO) assay) were 150 nM and 1200 nM, respectively.

In the case of `Cc1cccc(C(c2ccc(F)cc2)N2C[C@H](C)N(c3cc(=O)n(C)c4ccc(C#N)nc34)C[C@H]2C)c1` (single isomer, unassigned) [Example 224], the concentration for a half-maximal effect (EC50) with naïve human CD8 T cells (setting [5]) was 24 nM; with Human venous whole blood (setting [5]) it was 1000 nM. Moreover, the IC50 is 1500 nM at human DGKα (liposome (LIPGLO) assay) and 57 nM at human DGKζ (liposome (LIPGLO) assay).

On to `Cc1ccc(C(c2ccc(Cl)cn2)N2C[C@H](C)N(c3cc(=O)n(C)c4ccc(C#N)nc34)C[C@H]2C)cc1` (single isomer, unassigned) [Example 199], for which the figures for the half-maximal effective concentration (EC50) with naïve human CD8 T cells (setting [1]) and in the test with Human venous whole blood (setting [5]) were 61 nM and 250 nM, respectively. Also, the IC50 on human DGKα (liposome (LIPGLO) assay) and on human DGKζ (liposome (LIPGLO) assay) was 100 nM each time.

For the compound `CC[C@H]1CN(C(c2ccc(F)cc2)c2ccc(Cl)cc2)[C@H](CC)CN1c1cc(=O)n(C)c2ccc(C#N)nc12` (stereo partly drawn) [Example 1031], the EC50 in the test with naïve human CD8 T cells (setting [1]) stood at 1.3 nM; in the test on Human venous whole blood (setting [2]), 85 nM. The IC50 amounted to 260 nM at human DGKα (liposome (LIPGLO) assay) and 240 nM at human DGKζ (liposome (LIPGLO) assay).

As for `C[C@@H]1CN(c2cc(=O)n(C)c3ccc(C#N)nc23)[C@@H](C)CN1C(c1ccc(F)cc1)c1cccc(F)c1` (mixture of isomers) [Example 248, 8-[(2S,5R)-4-[(3-fluorophenyl)(4-fluorophenyl)methyl]-2,5-dimethylpiperazin-1-yl]-5-methyl-6-oxo-5,6-dihydro-1,5-naphthyridine-2-carbonitrile], the 50% effective concentration (EC50) in the test with naïve human CD8 T cells (setting [1]) stood at 53 nM; in the test on Human venous whole blood (setting [2]) it was 710 nM. Moreover, the half-maximal inhibitory concentration (IC50) at human DGKα (liposome (LIPGLO) assay) was 1300 nM; at human DGKζ (liposome (LIPGLO) assay), 790 nM.

For `Cc1cccc(C(c2ccc(F)cc2)N2C[C@H](C)N(c3cc(=O)n(C)c4ccc(C#N)nc34)C[C@H]2C)n1` (single isomer, unassigned) [Example 203], the concentration giving a half-maximal response (EC50) was 32 nM in the test with naïve human CD8 T cells (setting [5]) and 290 nM in the test on Human venous whole blood (setting [5]). Besides, the IC50 at human DGKα (liposome (LIPGLO) assay) came out at 190 nM; on human DGKζ (liposome (LIPGLO) assay), 29 nM.

`CCc1cc(F)ccc1C(c1ccc(Cl)cc1)N1C[C@H](C)N(c2cc(=O)n(C)c3ccc(OC)nc23)C[C@H]1C` (single isomer, unassigned) [Example 231]: the EC50 came to 1100 nM in the test with naïve human CD8 T cells (setting [5]) and 20000 nM with Human venous whole blood (setting [2]). The IC50 on human DGKα (liposome (LIPGLO) assay) is 240000 nM; at human DGKζ (liposome (LIPGLO) assay), 3700 nM.

On to `C[C@@H]1CN(c2cc(=O)n(C)c3ccc(C#N)nc23)[C@@H](C)CN1C(c1ccc(F)cc1)c1nc(-c2ccc(F)cc2)no1` (single isomer, unassigned) [Example 742], for which the half-maximal effective concentration (EC50) turned out to be 1.5 nM in the test on naïve human CD8 T cells (setting [4]) and 140 nM in the test with Human venous whole blood (setting [3]). Further, the values for the 50% inhibitory concentration (IC50) at human DGKα (DGKα liposome (LIPGLO) assay) and at human DGKζ (DGKζ liposome (LIPGLO) assay) were 150 nM and 790 nM, respectively.

Consider `C[C@@H]1CN(c2cc(=O)n(C)c3ccc(C#N)nc23)[C@@H](C)CN1C(c1ccc(F)cc1)c1c(F)cccc1F` (single isomer, unassigned) [Example 275], for which the values for the EC50 with naïve human CD8 T cells (setting [5]) and with Human venous whole blood (setting [5]) were 230 nM and 3700 nM, respectively. The figures for the IC50 at human DGKα (liposome (LIPGLO) assay) and at human DGKζ (liposome (LIPGLO) assay) were 1900 nM and 3600 nM, respectively.
